Source: US11478460B2, “Diaryl substituted 6,5-fused ring compounds as C5aR inhibitors” (CHEMOCENTRYX, INC., priority 2017, dated 2022)

Target: C5aR (Homo sapiens (Human), UniProt P21730)
Experiment: Chemotaxis assay using U937 cells (C5aR mediated migration)
Type: cell-based
Details: read-out: Mig IC50
Method in brief: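 Migration toward 0.03 nM C5a, mixed with varying compound in the lower chamber (HBSS with 1% FBS), was measured over 1.5 h at 37° C through 5 μm filters. Upper chamber held 100,000 U937 cells treated overnight with 0.5 mM cAMP; migrated cells quantified by counts or CyQuant for IC50, SDF-1α as specificity control.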

C5aR, sequence (P21730 whole entry): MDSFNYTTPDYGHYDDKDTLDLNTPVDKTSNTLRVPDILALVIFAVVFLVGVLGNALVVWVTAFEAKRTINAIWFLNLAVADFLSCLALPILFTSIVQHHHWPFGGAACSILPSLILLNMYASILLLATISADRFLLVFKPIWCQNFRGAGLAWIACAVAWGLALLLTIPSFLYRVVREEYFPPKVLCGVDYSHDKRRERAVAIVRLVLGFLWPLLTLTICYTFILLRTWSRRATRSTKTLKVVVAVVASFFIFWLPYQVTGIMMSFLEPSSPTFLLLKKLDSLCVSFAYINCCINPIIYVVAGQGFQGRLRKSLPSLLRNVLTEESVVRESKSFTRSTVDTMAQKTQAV

| SMILES | IC50 |
| --- | --- |
| CC[C@@H](c1ccccc1)N1CCc2nn(-c3c(C)cccc3C)c(-c3ccc(NC(N)=O)cc3F)c2C1 [Example 1.081] | 5 to 50 nM |
| Cc1cccc(OCC(C)C)c1-n1nc2c(c1-c1ccc(NC(N)=O)cc1)CN(c1ccc(C(F)(F)F)cc1Cl)CC2 [Example 1.375] | 5 to 50 nM |
| CCc1cccc(CC)c1-n1nc2c(c1-c1cc(F)c(NC(N)=O)cc1F)CN(Cc1cc(Cl)ccc1Cl)CC2 [Example 1.070] | ≤ 5 nM |
| CCc1cccc(CC)c1-n1nc2c(c1-c1ccc(NC(N)=O)c(F)c1)CN(CC1CCCC1)CC2 [Example 1.243] | ≤ 5 nM |
| Cc1cccc(OCC(C)C)c1-n1nc2c(c1-c1ccc(NC(N)=O)c(F)c1)CN(C(C)CC(C)C)CC2 (centres unmarked) [Example 1.239] | ≤ 5 nM |
| Cc1cccc(CCC(C)C)c1-n1nc2c(c1-c1ccc(NC(N)=O)cc1)CN(Cc1ccc(C(F)(F)F)cc1C(F)(F)F)CC2 [Example 1.337] | 5 to 50 nM |
| Cc1ccc(N2CCc3nn(-c4c(C)cccc4OCC(C)C)c(-c4ccc(NC(N)=O)cc4)c3C2)c(C(F)(F)F)c1 [Example 1.321] | ≤ 5 nM |
| Cc1cc(NC(N)=O)c(F)cc1-c1c2c(nn1-c1c(C)cccc1C)CCN(c1ccc(Cl)cc1Cl)C2 [Example 1.118] | ≤ 5 nM |
| COc1cccc(C)c1-n1nc2c(c1-c1ccc(NC(N)=O)c(C)c1)CN(c1cc(C(C)(C)C)ccc1C)CC2 [Example 1.409] | 5 to 50 nM |
| Cc1cccc(C)c1-n1nc2c(c1-c1cc(F)c(NC(N)=O)cc1F)CN(C(c1ccccc1)C(C)(C)O)CC2 (centres unmarked) [Example 1.085] | 5 to 50 nM |
| COc1cc(-c2c3c(nn2-c2c(C)cccc2OCC(C)C)CCN(c2ncc(C(F)(F)F)cc2F)C3)ccc1NC(N)=O [Example 1.267] | 5 to 50 nM |
| COc1ccc(Cl)c(CN2CCc3nn(-c4c(C)cccc4OCC(C)C)c(-c4ccc(NC(N)=O)cc4)c3C2)c1 [Example 1.302] | 5 to 50 nM |
| Cc1cccc(C)c1-n1nc2c(c1-c1cc(F)c(NC(N)=O)cc1F)CN(c1ccc(Cl)cc1)CC2 [Example 1.095] | ≤ 5 nM |
| Cc1cc(C(F)(F)F)ccc1N1CCc2nn(-c3c(C)cccc3OCC(C)C)c(-c3ccc(NC(N)=O)cc3)c2C1 [Example 1.377] | 5 to 50 nM |
| Cc1cccc(C)c1-n1nc2c(c1-c1cc(F)c(NC(N)=O)cc1F)CN(c1ccc(C3CC3)cc1Cl)CC2 [Example 1.093] | ≤ 5 nM |
| CC(C)COc1cccc(F)c1-n1nc2c(c1-c1cc(F)c(NC(N)=O)cc1F)CN(c1ncc(Cl)cc1Cl)CC2 [Example 1.188] | ≤ 5 nM |
| CCC(C)(C)N1CCc2nn(-c3c(C)cccc3OCC(C)C)c(-c3cc(F)c(NC(N)=O)cc3F)c2C1 [Example 1.214] | ≤ 5 nM |
| CCOc1cccc(C)c1-n1nc2c(c1-c1ccc(NC(N)=O)cc1)CN(c1ccccc1C(C)C)CC2 [Example 1.475] | 5 to 50 nM |
| COc1cccc(C)c1-n1nc2c(c1-c1cc(F)c(NC(N)=O)cc1F)CN(c1ncc(Cl)cc1Cl)CC2 [Example 1.184] | ≤ 5 nM |
| CC(C)COc1cccc(F)c1-n1nc2c(c1-c1cc(F)c(NC(N)=O)cc1F)CN(c1ncc(C(F)(F)F)cc1F)CC2 [Example 1.203] | ≤ 5 nM |
| Cc1cccc(C)c1-n1nc2c(c1-c1cc(F)c(NC(N)=O)cc1F)CN(c1ncc(Cl)cc1Cl)CC2 [Example 1.180] | ≤ 5 nM |
| Cc1cccc(OCC(C)C)c1-n1nc2c(c1-c1ccc(NC(N)=O)cc1)CN(C(C)(C)c1ccccc1)CC2 [Example 1.134] | 5 to 50 nM |

| SMILES | IC50 |
| --- | --- |
| Cc1cccc(C)c1-n1nc2c(c1-c1cc(F)c(NC(N)=O)cc1F)CN(c1ncc(Cl)cc1C(N)=O)CC2 [Example 1.101] | > 500 nM |
| Cc1cccc(OCC(C)C)c1-n1nc2c(c1-c1ccc(NC(N)=O)cc1)CN(C1CCCC1C)CC2 (centres unmarked) [Example 1.397] | 50 to 500 nM |
| Cc1cccc(C)c1-n1nc2c(c1-c1cc(F)c(NC(N)=O)cc1F)CN(c1ccc(OC(F)(F)F)cc1F)CC2 [Example 1.099] | ≤ 5 nM |
| CCc1cccc(CC)c1-n1nc2c(c1-c1ccc(NC(N)=O)cc1)CN(Cc1ccc(Cl)cc1C(F)(F)F)CC2 [Example 1.278] | 5 to 50 nM |
| Cc1cccc(OCC(C)C)c1-n1nc2c(c1-c1cc(F)c(NC(N)=O)cc1F)CN(c1ccnc(C(F)(F)F)n1)CC2 [Example 1.137] | ≤ 5 nM |
| Cc1cccc(C)c1-n1nc2c(c1-c1cc(F)c(NC(N)=O)cc1F)CN(c1ccc(C(F)(F)F)cc1F)CC2 [Example 1.122] | ≤ 5 nM |
| Cc1cc(C(C)C)cnc1N1CCc2nn(-c3c(C)cccc3OCC(C)C)c(-c3ccc(NC(N)=O)cc3)c2C1 [Example 1.355] | 5 to 50 nM |
| Cc1cccc(C)c1-n1nc2c(c1-c1cc(F)c(NC(N)=O)cc1F)CN(c1ncc(C(F)(F)F)cc1Cl)CC2 [Example 1.091] | ≤ 5 nM |
| Cc1cccc(OCC(C)C)c1-n1nc2c(c1-c1ccc(NC(N)=O)cc1)CN(CC1(C(F)(F)F)CCCC1)CC2 [Example 1.366] | 5 to 50 nM |
| Cc1cc(C(C)C)cnc1N1CCc2nn(-c3c(C)cccc3OCC(C)C)c(-c3cc(F)c(NC(N)=O)cc3F)c2C1 [Example 1.185] | ≤ 5 nM |
| Cc1cccc(OCC(C)C)c1-n1nc2c(c1-c1ccc(NC(N)=O)cc1)CN(C(=O)C(C)(C)C)CC2 [Example 1.436] | 50 to 500 nM |
| CCc1cccc(CC)c1-n1nc2c(c1-c1cc(F)c(NC(N)=O)cc1F)CN(CC)C(C)(C)C2 [Example 1.009] | 5 to 50 nM |
| Cc1cccc(Cl)c1CN1CCc2nn(-c3c(C)cccc3OCC(C)C)c(-c3ccc(NC(N)=O)cc3)c2C1 [Example 1.359] | ≤ 5 nM |
| Cc1ccc(C(C)(C)C)cc1N1CCc2nn(-c3c(C)cccc3OC(C)C)c(-c3ccc(NC(N)=O)cc3)c2C1 [Example 1.444] | ≤ 5 nM |
| CCc1cccc(CC)c1-n1nc2c(c1-c1cc(F)c(NC(N)=O)cc1F)CN(Cc1ccc(C#N)cc1C(F)(F)F)CC2 [Example 1.048] | ≤ 5 nM |
| Cc1cccc(OCC(C)C)c1-n1nc2c(c1-c1ccc(NC(N)=O)cc1)CN(Cc1cc(Cl)ccc1Cl)CC2 [Example 1.324] | ≤ 5 nM |
| Cc1cccc(C)c1-n1nc2c(c1-c1ccc(NC(C)C)cc1)CN(c1ccccc1C(C)C)CC2 [Example 1.477] | 50 to 500 nM |
| CCc1cccc(CC)c1-n1nc2c(c1-c1cc(F)c(NC=O)cc1F)CN(Cc1ccc(C(F)(F)F)cc1C(F)(F)F)CC2 [Example 1.003] | ≤ 5 nM |
| Cc1ccc(C(C)(C)C)cc1N1CCc2nn(-c3c(C)cccc3C)c(-c3ccc(OC(C)C)cc3)c2C1 [Example 1.446] | > 500 nM |
| Cc1cccc(OCC(C)C)c1-n1nc2c(c1-c1ccc(NC(N)=O)cc1)CN(C(C)c1ccccc1C(F)(F)F)CC2 (centres unmarked) [Example 1.330] | ≤ 5 nM |
| Cc1cccc(OCC(C)C)c1-n1nc2c(c1-c1ccc(NC(N)=O)cc1)CN(Cc1cc(Cl)ccc1F)CC2 [Example 1.309] | ≤ 5 nM |
| Cc1cccc(C)c1-n1nc2c(c1-c1cc(F)c(NC(=O)CN)cc1F)CN(c1ncc(Cl)cc1Cl)CC2 [Example 1.116] | > 500 nM |

| SMILES | IC50 |
| --- | --- |
| Cc1cc(NC(N)=O)ccc1-c1c2c(nn1-c1c(C)cccc1OCC(C)C)CCN(c1ncc(C(F)(F)F)cc1F)C2 [Example 1.268] | 5 to 50 nM |
| Cc1cccc(OCC(C)C)c1-n1nc2c(c1-c1ccc(NC(N)=O)cc1)CN(c1ccc(C(F)(F)F)cc1)CC2 [Example 1.407] | 5 to 50 nM |
| CCc1cccc(CC)c1-n1nc2c(c1-c1cc(F)c(NC(N)=O)cc1F)CN(Cc1cnc(C)cc1C)CC2 [Example 1.026] | 5 to 50 nM |
| Cc1cccc(OCC(C)C)c1-n1nc2c(c1-c1ccc(NC(N)=O)cc1)CN(CC(C)C)CC2 [Example 1.385] | 50 to 500 nM |
| Cc1ccc(F)cc1N1CCc2nn(-c3c(C)cccc3OCC(C)C)c(-c3ccc(NC(N)=O)cc3)c2C1 [Example 1.423] | 5 to 50 nM |
| Cc1cccc(OCC(C)C)c1-n1nc2c(c1-c1ccc(NC(N)=O)cc1)CN(CC(C)C(F)(F)F)CC2 (centres unmarked) [Example 1.391] | 5 to 50 nM |
| NC(=O)Nc1cc(F)c(-c2c3c(nn2-c2ccccc2OC(F)(F)F)CCN(c2ncc(Cl)cc2Cl)C3)cc1F [Example 1.167] | ≤ 5 nM |
| Cc1cnc(C(C)C)cc1N1CCc2nn(-c3c(C)cccc3OCC(C)C)c(-c3ccc(NC(N)=O)cc3)c2C1 [Example 1.348] | 5 to 50 nM |
| CCc1cccc(CC)c1-n1nc2c(c1-c1ccc(NC(N)=O)cc1)CN(Cc1c(Cl)cccc1C(F)(F)F)CC2 [Example 1.297] | 5 to 50 nM |
| Cc1cccc(OCC(C)C)c1-n1nc2c(c1-c1ccc(NC(N)=O)cc1)CN(Cc1c(C(F)(F)F)ccc(Cl)c1F)CC2 [Example 1.299] | ≤ 5 nM |
| CCc1cccc(CC)c1-n1nc2c(c1-c1cc(F)c(NC(N)=O)cc1F)CN(Cc1cc(C(F)(F)F)ccc1OC)CC2 [Example 1.037] | ≤ 5 nM |
| Cc1cccc(CC(C)C)c1-n1nc2c(c1-c1ccc(NC(N)=O)cc1)CN(C(=O)OC(C)(C)C)CC2 [Example 1.415] | 50 to 500 nM |
| Cc1cccc(OCC(C)C)c1-n1nc2c(c1-c1cc(F)c(NC(N)=O)cc1F)CN(c1ncc(C(F)(F)F)cn1)CC2 [Example 1.164] | ≤ 5 nM |
| Cc1cccc(OCC(C)C)c1-n1nc2c(c1-c1ccc(NC(N)=O)cc1)CN(C(=O)c1ccccc1)CC2 [Example 1.431] | 50 to 500 nM |
| CCc1cccc(CC)c1-n1nc2c(c1-c1ccc(NC(N)=O)cc1)CN(C(CC)c1ccccc1C(F)(F)F)CC2 (centres unmarked) [Example 1.286] | 5 to 50 nM |
| CCc1cccc(CC)c1-n1nc2c(c1-c1cc(F)c(NC(N)=O)cc1F)CN(C(C)c1ccc(F)cc1)CC2 (centres unmarked) [Example 1.152] | ≤ 5 nM |
| Cc1cccc(OCC(C)C)c1-n1nc2c(c1-c1ccc(NC(N)=O)cc1)CN(c1ccc(F)c(C(F)(F)F)c1)CC2 [Example 1.369] | 5 to 50 nM |
| CCc1cccc(CC)c1-n1nc2c(c1-c1cc(F)c(NC(N)=O)cc1F)CN(Cc1ccc(C(F)(F)F)cc1F)CC2 [Example 1.066] | ≤ 5 nM |
| Cc1cccc(OCC(C)C)c1-n1nc2c(c1-c1ccc(NC(N)=O)cc1)CN(c1ccc(C(F)(F)F)cc1C(F)(F)F)CC2 [Example 1.343] | ≤ 5 nM |
| Cc1cccc(C)c1-n1nc2c(c1-c1ccc(NC(N)=O)cc1)CN(C(=O)OC(C)(C)C)CC2 [Example 1.417] | 50 to 500 nM |
| Cc1cccc(OCC(C)C)c1-n1nc2c(c1-c1ccc(NC(N)=O)cc1)CN(CC(C)(C)C)CC2 [Example 1.405] | 5 to 50 nM |
